Consider one compound from patent US10973834B2, “EP4 inhibitors and use thereof” (Arrys Therapeutics, Inc., priority 2018, dated 2021).

For test [1], the system named is 4T1 mouse breast cancer. Description: Antitumor activity of Compound B alone and with anti-PD1 in the 4T1 model, additional experiment. The note with it: 4T1 tumors; Compound B 15 mg/kg BID po; anti-PD1 10 mg/kg ip BIW; n=7/group; FIG. 6. The class given is in vivo, BALB/c mice. As for the experimental part: The antitumor activity of Compound B as a single agent and combined with a mouse anti-PD1 antibody was evaluated in the 4T1 mouse breast cancer model grown in BALB/c mice in an additional experiment. Mice were inoculated subcutaneously in the right flank with 3×10^5 tumor cells. When tumors reached an average size of 97 mm^3 dosing was initiated. The dosing regimens in the 4 separate cohorts comprising 7 mice each are as follows: […]

Test [2] relates to CT-26 tumors. Description: Immune cell composition of CT-26 tumors by flow cytometry. The class given is in vivo, BALB/c mice. Particulars: after 7 days of dosing, Compound B 15 mg/kg BID, anti-PD1 10 mg/kg Q3D. As for the experimental part: The immune cell composition of Compound B as a single agent and combined with a mouse anti-PD1 antibody was evaluated in the CT-26 mouse colon adenocarcinoma model grown in BALB/c mice. Mice were inoculated subcutaneously in the right flank with 5×10^5 tumor cells. When tumors reached an average size of 85 mm^3 dosing was initiated. The dosing regimens in the 4 separate cohorts comprising 10 mice each are listed as follows:
After dosing animals for 7 days, tumors were resected and used to prepare single cell suspensions. Live cells representing tumor and immune cells were stained with cocktails of antibodies targeting multiple immune cell markers (anti-CD45, anti-CD3, anti-CD4, anti-CD8, anti-CD25, anti-FoxP3, anti-PD-1, anti-CD11c) conjugated to different fluorescent tags. The stained cells were fixed in 4% paraformaldehyde and quantified using a multi-color flow cytometer (Fortessa). The data was analyzed with FloJo software.
Background: Flow cytometry measures light scatter and fluorescence of single cells or particles in a stream.

The subject of test [3] is CT-26 mouse colon adenocarcinoma. The test is described as follows: Antitumor activity of Compound B alone and with anti-PD1 in the CT-26 model, additional experiment. The class given is in vivo, BALB/c mice. The note with it: CT-26 tumors; Compound B 15 mg/kg BID po; anti-PD1 10 mg/kg ip BIW; n=7/group; FIG. 5. As for the experimental part: The antitumor activity of Compound B as a single agent and combined with a mouse anti-PD1 antibody was evaluated in the CT-26 mouse colon adenocarcinoma model grown in BALB/c mice in an additional experiment. Mice were inoculated subcutaneously in the right flank with 5×10^5 tumor cells. When tumors reached an average size of 91 mm^3 dosing was initiated. The dosing regimens in the 4 separate cohorts comprising 7 mice each are as follows: […]

Test [4] deals with CT26 tumor cells. Description: CT26 re-inoculation of complete responders versus tumor-naive mice. The note with it: complete responders compared with 6 tumor-naive mice. The class given is in vivo. The text has this:
CT26 tumor cells were inoculated into 6 tumor-naive mice or complete responders of CT26 tumor-bearing mice previously treated with Compound B and anti-PD-1 alone or in combination.

The subject of test [5] is 4T1 mouse breast cancer. Description: Antitumor activity of Compound B alone and with anti-CTLA4 in the 4T1 model. In kind it is in vivo, BALB/c mice. Particulars: 4T1 tumors; Compound B 15 mg/kg BID; n=10/group; FIG. 3. From the text: Mice were inoculated subcutaneously in the right flank with 3×10^5 tumor cells. When tumors reached an average size of 100 mm^3 (7 days after tumor cell inoculation) dosing was initiated.

Test [6] has as its system CT-26 mouse colon adenocarcinoma. Description: Antitumor activity of Compound B alone and with anti-PD-1 in the CT-26 model. The class given is in vivo, BALB/c mice. As for the experimental part: The antitumor activity of Compound B as a single agent and combined with a mouse anti-PD-1 antibody was evaluated in the CT-26 mouse colon adenocarcinoma model grown in BALB/c mice. Mice were inoculated subcutaneously in the right flank with 5×10^5 tumor cells. When tumors reached an average size of 71 mm^3 (6 days after tumor cell inoculation) dosing was initiated. The dosing regimens in the 8 separate cohorts comprising 10 mice each are as follows: […]

[7] abbreviates: 99 days after tumor inoculation.

Take `C[C@H](NC(=O)c1cc(Cl)cnc1Oc1cccc(F)c1)c1ccc(C(=O)O)cc1` [Compound B]: the “tumor growth kinetics during the period of dosing” value is “less than that of the vehicle group and anti-PD1 when dosed alone” in test [1]; “less than that of the vehicle group” in test [3]; “decreased relative to the vehicle treated mice” in test [5]; “not notably different from the vehicle treated mice” in test [6] (CT-26 tumors, Compound B 15 mg/kg QD and BID p.o., anti-PD-1 10 mg/kg i.p., n=10/group, FIG. 1). Moreover, in test [2] (FIG. 7b), the “percentage of dendritic cells (CD45, CD11c positive)” value is “increased percentage”. The “regulatory T cells (CD45, CD4, FoxP3, CD25 positive)” value in test [2] (versus vehicle, FIG. 7a) is reported as “significant decrease”. For the same compound, the “growth of re-inoculated CT26 in complete responders” value in test [4] was “decreased the growth of CT26 relative to naive mice”. Besides, the mice still alive in test [6] (setting [7]) is recorded as 1 out of 10. Moreover, in test [6] (setting [7]), the mice tumor free was 1 out of 10.
